Results on 1 compound are retold here after patent US11879021B2, “Cyclic peptides and uses thereof” (UNIVERSITÉ DE MONTRÉAL, priority 2016, dated 2024).

The experiment has as its system R-FSL-1 (TLR2 agonist)-induced TNF-α and CCL-2 release in RAW macrophages. The experiment is described as follows: R-FSL-1-induced TNF-α and CCL-2 release in RAW macrophages. Type of experiment: cell-based, murine. Particulars: 10^−7 M. As to the method:
The murine RAW1 macrophage cell line was obtained from American Type Cell Collection (ATCC #TIB-71). RAW cells were seeded at 150,000 cells per well in a 48-well plate (Costar® #3548) and weaned overnight in medium (DMEM supplemented 1% penicillin/streptomycin) at 37° C. with 5% CO2. The next day, the medium was changed to DMEM-1% penicillin/streptomycin supplemented with 0.2% BSA. The cells were first pretreated with 300 μL of azapeptides DBG178 (MPE-133, reference standard), 25 (MPE-210), 26 (MPE-266), 28 (MPE-268), 32 (MPE-267), 33 (MPE-298), 38 (MPE-308), 35 (MPE-300), 39 (MPE-310) and azaLys6-GHRP-6 (as negative control) at 10^-7M for 30 min. Then, […] of the TLR2 agonist, R-FSL-1 (300 ng/ml final concentration, R-FSL-1, Invivogen® #L7022) was added for 4 h period of incubation at 37° C. with 5% CO2. At the end of the incubation period, media were collected and stored at −80° C. for TNF-α and CCL-2 assays using ELISA kits (EbioScience® #88-7391 and #88-7324). Results were analyzed by analysis of variance (ANOVA) with post hoc comparisons using Dunnett's test with a statistical software package (Graph Pad Prism® version 7.0). P<0.05 was considered statistically significant.

SMILES strings stand for the structures.

Regarding `C=CCN1CC#CCN(NC(=O)[C@H](C)N)C(=O)N[C@H](Cc2c[nH]c3ccccc23)C(=O)N[C@@H](C)C(=O)N[C@@H](Cc2c[nH]c3ccccc23)C(=O)N[C@H](Cc2ccccc2)C(=O)N[C@H](C(N)=O)CCCC1` [MPE-298], the “effect on R-FSL-1-induced CCL-2 release” value is listed as “significant inhibitory effect” and the “effect on R-FSL-1-induced TNF-α release” value is “significant inhibitory effect”.
